Entries after “also recorded” stand apart in the source; their conditions may differ.
How the values were obtained:
[1] = tested on: MMR-deficient primary tumor cultures and cancer cell lines; assay: RAD51 immunostaining (RAD51 foci formation) after olaparib, MMR-deficient cells; assay type: cell-based, human; conditions: 10 μM olaparib, 24 hours, average of 8 MMR-deficient cultures
Method: (§1) To investigate whether the DSB repair by HR pathway is functionally inactivated in MMR-deficient tumors, it was assessed the DSB repair activity in eight MMR-deficient and four MMR-proficient primary tumor cultures and cancer cell lines. The MMR status of these cells was analyzed using the 56-marker panel and confirmed by the Bethesda Panel.
(§2) Nine primary endometrial and ovarian tumor cell cultures were established from patients undergoing surgery at the Division of Gynecologic Oncology, University Hospitals Gasthuisberg, Leuven (Belgium). Only after providing informed consent, patients were included in the study. The following protocol was used to generate primary tumor cultures. First, tumor samples were placed into sterile RPMI medium supplemented with Penicillin/Streptomycin (1000 U/ml) and Fungizone (0.5 μg/ml) (all from Life Technologies) for transport from the surgery room to the cell culture laboratory. […]
(§3) Primary tumor cell cultures were grown in RPMI Medium 1640 (Gibco) supplemented with 20% fetal bovine serum, 2 mM L-Glutamine, 100 U/ml of penicillin, 100 μg/ml of streptomycin, 1 μg/ml of fungizone and 10 μg/ml of gentamicin up to 20 passages. […] They were also routinely monitored for Mycoplasma contamination and no Mycoplasma growth has been detected. […]

[2] = tested on: MMR-proficient primary tumor cultures and cancer cell lines; assay: RAD51 immunostaining (RAD51 foci formation) after olaparib, MMR-proficient cells; assay type: cell-based, human; conditions: 10 μM olaparib, 24 hours, average of 4 MMR-proficient cultures
Method: as §1, §2, §3

[3] = tested on: MMR-deficient and MMR-proficient tumor cells; assay: γH2AX immunostaining (unrepaired DNA damage) after olaparib; assay type: cell-based, human; conditions: all cells regardless of MMR status
Method: Primary tumor cultures and immunofluorescence: Nine primary endometrial and ovarian tumor cell cultures were established from tumors of the patients undergoing surgery. Primary tumor cell cultures were grown in RPMI1640 medium (GIBCO) supplemented with 20% FBS, 2 mM L-Glutamine, 100 U/ml penicillin, 100 μg/ml streptomycin, 1 μg/ml fungizone and 10 μg/ml gentamicin up to 20 passages. 25,000 cells/well were seeded on eight-well slides (Nunc) in 400 μl medium and grown for 24 hours. Following exposure to 0 or 10 μM olaparib, slides were rinsed in PBS, fixed in paraformaldehyde at 37° C., permeabilized with 0.1% Triton X-100 and blocked with BSA. […] The percentage of foci positive cells (>5 foci per nucleus) was determined on a Zeiss LSM 510 inverted confocal microscope using Plan-Neofluar 40×/1.3 oil immersion objective. For each experiment, at least 100 nuclei were analyzed.
The degree of unrepaired DNA damage upon olaparib treatment was measured with γH2AX immunofluorescence. […]
γH2AX and RAD51 foci were visualized with Zeiss LSM 510 inverted confocal microscope using Plan-Neofluar 40x/1.3 oil immersion objective and excitation wavelengths of 488 and 750 nm (Chameleon coherent two-photon laser). […] Nuclei with >5 foci were scored positive, and at least 100 nuclei were counted per culture and per condition.

[4] = tested on: MMR-deficient cells; assay: Cell proliferation with xCELLigence RTCA system, MMR-deficient cells; assay type: cell-based, human; conditions: for decrease in proliferation versus untreated cells: average of 8 MMR-deficient cultures, 48 hours
Method: (§4) As MMR-deficient tumors are characterized by reduced activity of the DSB repair by HR pathway, it was hypothesized that these tumors, similar to BRCA1-deficient tumors (Farmer et al., 2005), can be selectively targeted by PARP inhibition. All eight MMR-deficient and four MMR-proficient cultures were dose-dependently (1, 3 and 10 μM) exposed to olaparib and effects on proliferation were assessed.
(§5) Real-Time Cell Analyzer (RTCA) xCELLigence System (Roche Applied Science, Mannheim, Germany) was used to dynamically monitor cell proliferation rates. The system measures electrical impedance across microelectrodes on the bottom of tissue culture E-plates. The impedance measurement provides quantitative information about cell number, viability, morphology and adhesion. 5,000 cells/well were seeded on E-plate 16 (Roche) in 200 μl medium. 24 hours post-seeding, cells were treated with olaparib to the desired final concentration (1, 3, 10 μM olaparib). The final DMSO percent in all wells was 0.1%. Each treatment condition was measured in triplicate. Dynamic cell index values were monitored in five-minute intervals for 48 hours after treatments. Cell index values were normalized to the vehicle-treated control for each cell.
Cell Proliferation: Real-Time Cell Analyzer (RTCA) xCELLigence System (Roche) was used to dynamically monitor cell proliferation rates. 5,000 cells/well were seeded on E-plate 16 (Roche) in 200 μl medium. Olaparib (AZD-2281, JS Research Chemicals Trading) was dissolved in DMSO. 24 hours post-seeding, cells were treated with olaparib ([…]). Each condition was measured in triplicate and all experiments were done in duplicate at different time points. Dynamic cell index values were monitored for 48 hours after treatment.

[5] = tested on: MMR-proficient cells; assay: Cell proliferation with xCELLigence RTCA system, MMR-proficient cells; assay type: cell-based, human; conditions: 1, 3 and 10 μM olaparib, 48 hours
Method: as §4
as §5, with “24 hours post-seeding, cells were treated with olaparib to the desired final concentration (1, 3, 10 μM olaparib). The final DMSO percent in all wells was 0.1%.” left out, “Cell index values were normalized to the vehicle-treated control for each cell.” left out
Cell Proliferation: Real-Time Cell Analyzer (RTCA) xCELLigence System (Roche) was used to dynamically monitor cell proliferation rates. […] Each condition was measured in triplicate and all experiments were done in duplicate at different time points. Dynamic cell index values were monitored for 48 hours after treatment.

[6] = tested on: BRCA1-deficient cells; conditions: 3 μM olaparib; cited from earlier work
[7] = tested on: BRCA2-deficient cells; conditions: 10 μM olaparib; cited from earlier work

Compound: O=C(c1cc(Cc2n[nH]c(=O)c3ccccc23)ccc1F)N1CCN(C(=O)C2CC2)CC1 [olaparib]
- cells showing RAD51 foci formation (>5 foci per nucleus) [1]: 19±3%
- cells showing RAD51 foci formation (>5 foci per nucleus) [2]: 37±4%
- increase in number of γH2AX foci compared to baseline ([3]; 10 μM olaparib): 4-6 fold
- number of γH2AX foci (in words) ([3]; olaparib): drastically increased
- decrease in proliferation versus untreated cells ([4]; 1 μM olaparib): 15%
- decrease in proliferation versus untreated cells ([4]; 3 μM olaparib): 20%
- decrease in proliferation versus untreated cells ([4]; 10 μM olaparib): 42%
- effect on proliferation (in words) ([4]; 1, 3 and 10 μM olaparib, MMR-deficient cells): dose-dependent decrease in proliferation
- effect on proliferation (in words) [5]: no effect; also recorded: did not respond to olaparib
- decrease in viability [6]: 78%
- decrease in viability [7]: 91%

Reference: patent US10633707B2, “Markers for detecting microsatellite instability in cancer and determining synthetic lethality with inhibition of the DNA base excision repair pathway” (VIB VZW, priority 2012, dated 2020)
